For orientation: IC50 means the concentration needed to halve the response being measured.

Experiment [1] relates to IL-2, IL-4, IL-5, IL-13, GM-CSF, INF-γ and TNF-α. Briefly: Inhibition of multiple cytokines in primary human PBMCs (summary statement). Format: cell-based. As to conditions: PHA-stimulated PBMCs. The protocol: Cytokine production was measured using commercially available human ELISA assay kits (from Cell Science, Inc.) following the manufacturers instructions.
The test system of the next experiment is IL-2 production. Briefly: Inhibition of IL-2 production in PHA-activated Jurkat cells (ELISA). Format: cell-based. As to conditions: Homo sapiens, PHA 2.5 μg/mL, 20 hours. On the procedure:
Jurkat cells were placed in a 96 well plate (0.5 million cells per well in 1% FBS medium) then test compounds of this invention were added at different concentrations. After 10 minutes, the cells were activated with PHA (final concentration 2.5 μg/mL) and incubated for 20 hours at 37° C. under CO2. The final volume was 200 μL. Following incubation, the cells were centrifuged and the supernatants collected and stored at −70° C. prior to assaying for IL-2 production. A commercial ELISA kit (IL-2 Eli-pair, Diaclone Research, Besancon, France) was used to detect production of IL-2, from which dose response curves were obtained. The IC50 value was calculated as the concentration at which 50% of maximum IL-2 production after stimulation was inhibited versus a non-stimulation control.
Background: An ELISA detects its analyte on a solid surface through an enzyme-linked reagent.

[2] abbreviates: bin given with mixed units 500 nM-1 μM.

For `CCCCc1ccc(C(=O)Nc2ccc(-n3c(C(F)(F)F)nc4cc(OC)ccc43)cc2)cc1` [Compound 66, 4-Butyl-N-[4-(2-trifluoromethyl-5-methoxy-benzoimidazol-1-yl)-phenyl]-benzamide], the “inhibition of IL-2, IL-4, IL-5, IL-13, GM-CSF, INF-γ and TNF-α (in words)” value (from here on “inhibition”) in experiment [1] is on record as “potent inhibitors”.

As for `COc1ccc2c(c1)nc(C(F)(F)F)n2-c1ccc(NC(=O)c2ccc3c(c2)OCO3)cc1` [Compound 75, Benzo[1,3]dioxole-5-carboxylic acid {N-[4-(2-trifluoromethyl-5-methoxy-benzoimidazol-1-yl)-phenyl]} amide], in experiment [1], the “inhibition” value is on record as “potent inhibitors”.

As to `CC(C)(C)OC(=O)Nc1ccc(C(=O)Nc2ccc(-n3c(C(F)(F)F)nc4ccccc43)cc2)c(F)c1F` [Compound 31, N-(4-{N-[4-(2-trifluoromethyl-benzoimidazol-1-yl)-phenyl]-carbamoyl}-2,3-difluoro-phenyl)-carbamic acid t-butyl ester], the “inhibition” value in experiment [1] is reported as “potent inhibitors”.

In the case of `O=C(Nc1ccc(-n2c(C(F)(F)F)nc3ccccc32)nc1)c1cc(F)ccc1F` [Compound 41, 2,5-Difiuoro-N-[2-(2-trifluoromethyl-benzoimidazol-1-yl)-pyrid-5-yl]-benzamide], the 50% inhibitory concentration (IC50) with IL-2 production (setting [2]) was in the range of 500 to 1000 nM.

For the compound `COc1ccc2c(c1)nc(C(F)(F)F)n2-c1ccc(NC(=O)c2ccc(C)cc2C)nc1` [Compound 200, N-[5-(5-Methoxy-2-trifluoromethyl-benzoimidazol-1-yl)-pyridin-2-yl]-2,4-dimethyl-benzamide], the IC50 in the experiment on IL-2 production (setting [2]) fell in the range of 500 to 1000 nM.

As to `COc1ccc2c(c1)nc(C(F)(F)F)n2-c1ccc(NC(=O)c2cccc(C)c2C)nc1` [Compound 202, N-[5-(5-Methoxy-2-trifluoromethyl-benzoimidazol-1-yl)-pyridin-2-yl]-2,3-dimethyl-benzamide], the half-maximal inhibitory concentration (IC50) in the experiment with IL-2 production (binned values) is < 100 nM.

`COc1ccc2c(c1)nc(C(F)(F)F)n2-c1ccc(NC(=O)c2ncc[nH]2)nc1` [Compound 216, 1H-Imidazole-2-carboxylic acid [5-(5-methoxy-2-trifluoromethyl-benzoimidazol-1-yl)-pyridin-2-yl]-amide]: the 50% inhibitory concentration (IC50) in the experiment on IL-2 production (binned values) is > 1000 nM.

In the case of `COc1ccc2c(c1)nc(C(F)(F)F)n2-c1ccc(NC(=O)c2ccc(Br)cc2)nc1` [Compound 196, 4-Bromo-N-[5-(5-methoxy-2-trifluoromethyl-benzoimidazol-1-yl)-pyridin-2-yl]-benzamide], in the experiment on IL-2 production (binned values), the half-maximal inhibitory concentration (IC50) was 100 to 500 nM.

As to `COc1ccc2c(c1)nc(C(F)(F)F)n2-c1ccc(NC(=O)c2ccc(C#N)cc2)nc1` [Compound 166, 4-Cyano-N-[5-(5-methoxy-2-trifluoromethyl-benzoimidazol-1-yl)-pyridin-2-yl]-benzamide], the half-maximal inhibitory concentration (IC50) with IL-2 production (binned values) fell in the range of 100 to 500 nM.

`COc1ccc2c(c1)nc(C(F)(F)F)n2-c1ccc(NC(=O)C2CCC2)nc1` [Compound 169, Cyclobutanecarboxylic acid [5-(5-methox-2-trifluoromethyl-benzoimidazol-1-yl)-pyridin-2-yl]-amide] had an IC50 with IL-2 production (setting [2]) of 500 to 1000 nM.

Turning to `COc1ccc2c(c1)nc(C(F)(F)F)n2-c1ccc(NC(=O)c2c(F)cccc2F)nc1` [Compound 163, 2,6-difluoro-N-(5-(5-methoxy-2-(trifluoromethyl)-1H-benzo[d]imidazol-1-yl)pyridin-2-yl)benzamide], the IC50 in the experiment with IL-2 production (binned values) is < 100 nM.

With `COc1cccc(C(=O)Nc2ccc(-n3c(C(F)(F)F)nc4cc(OC)ccc43)cn2)c1` [Compound 204, 3-Methoxy-N-[5-(5-methoxy-2-trifluoromethyl-benzoimidazol-1-yl)-pyridin-2-yl]-benzamide], the concentration for half-maximal inhibition (IC50) in the experiment with IL-2 production (binned values) was > 1000 nM.

`COc1ccc2c(c1)nc(C(F)(F)F)n2-c1ccc(NC(=O)c2cccc([N+](=O)[O-])c2)nc1` [Compound 184, N-[5-(5-Methoxy-2-trifluoromethyl-benzoimidazol-1-yl)-pyridin-2-yl]-3-nitro-benzamide]: in the experiment on IL-2 production (binned values), the IC50 fell in the range of 100 to 500 nM.

As to `COc1ccc2c(c1)nc(C(F)(F)F)n2-c1ccc(NC(=O)c2ccccc2Cl)nc1` [Compound 178, 2-Chloro-N-[5-(5-methoxy-2-trifluoromethyl-benzoimidazol-1-yl)-pyridin-2-yl]-benzamide], in the experiment on IL-2 production (binned values), the concentration for half-maximal inhibition (IC50) is < 100 nM.

In the experiment with IL-2 production (binned values), `CCCCNc1ccc(-n2c(C(F)(F)F)nc3cc(OC)ccc32)cn1` [Compound 165, Butyl[5-(5-methoxy-2-trifluoromethyl-benzoimidazol-1-yl)-pyridin-2-yl]-amine] registered an IC50 of 100 to 500 nM.

In the experiment on IL-2 production (binned values), `COc1ccc2c(c1)nc(C(F)(F)F)n2-c1ccc(NC(=O)c2cccc(Br)c2)nc1` [Compound 191, 3-Bromo-N-[5-(5-methoxy-2-trifluoromethyl-benzoimidazol-1-yl)-pyridin-2-yl]-benzamide] showed a concentration for half-maximal inhibition (IC50) of 100 to 500 nM.

For the compound `COc1ccc2c(c1)nc(C(F)(F)F)n2-c1ccc(NC(=O)c2ccc(Cl)cc2F)nc1` [Compound 177, 4-Chloro-2-fluoro-N-[5-(5-methoxy-2-trifluoromethyl-benzoimidazol-1-yl)-pyridin-2-yl]-benzamide], the IC50 in the experiment with IL-2 production (binned values) was 100 to 500 nM.

`COc1ccc2c(c1)nc(C(F)(F)F)n2-c1ccc(NC(=O)c2ccncc2F)nc1` [Compound 201, 3-Fluoro-N-[5-(5-methoxy-2-trifluoromethyl-benzoimidazol-1-yl)-pyridin-2-yl]-isonicotinamide]: the half-inhibitory concentration (IC50) with IL-2 production (binned values) was 100 to 500 nM.

`COc1ccc2c(c1)nc(C(F)(F)F)n2-c1ccc(NC(=O)C2CCCC2)nc1` [Compound 193, Cyclopentanecarboxylic acid [5-(5-methoxy-2-trifluoromethyl-benzoimidazol-1-yl)-pyridin-2-yl]-amide]: the IC50 in the experiment on IL-2 production (binned values) was < 100 nM.
